From US20260022142A1, “MACROCYCLIC IMMUNOMODULATORS” (Bristol-Myers Squibb Company, priority 2022, published 2026)
Bridge positions count the residues as written; N and C are the ends. Square brackets hold non-standard residues; d marks the D form. Peptide text beside a SMILES is read from it. * marks the point of attachment. ξ: configuration not given here. Phe(4-CH2CH2COOH) = N[C@@H](Cc1ccc(CCC(=O)O)cc1)C(=O)O; Phe(4-COOH) = N[C@@H](Cc1ccc(C(=O)O)cc1)C(=O)O; Bip = N[C@@H](Cc1ccc(-c2ccccc2)cc1)C(=O)O; Phe(3-Me) = Cc1cccc(C[C@H](N)C(=O)O)c1; Phe(4-F) = N[C@@H](Cc1ccc(F)cc1)C(=O)O; Val(3-OH) = CC(C)(O)[C@H](N)C(=O)O; Cha = N[C@@H](CC1CCCCC1)C(=O)O; Cit = NC(=O)NCCC[C@H](N)C(=O)O; Thr(3ξ) = CC(O)[C@H](N)C(=O)O; Carboxymethyl = O=C(O)C*; Orn = NCCC[C@H](N)C(=O)O; Aun = NCCCCCCCCCCC(=O)O; Dab = NCC[C@H](N)C(=O)O; Dap = NC[C@H](N)C(=O)O; AEEA = NCCOCCOCC(=O)O

The molecules below were run against T1, PD-1/PD-L1 interaction (PE-labeled human PD-L1-Ig binding to Jurkat cell line over-expressing human PD-1) (Homo sapiens, UniProt Q15116) (assay: Jurkat-PD-1 Cell Binding High-Content Screening Assay (CBA)). Details: Jurkat cell line over-expressing human PD-1; PE-labeled PD-L1-Ig 20 nM final; read-out: Jurkat hPD1-PDL1 IC50.
T1 construct: expressed in transfected cells; host or cells: Jurkat
Format: cell-based
Procedure, shortened: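 First, compound is added to PD-1-expressing Jurkat cells in serum-containing DMEM and left 2 h at 37° C. Next, PE-conjugated PD-L1-Ig is introduced at 20 nM final concentration for 1 hour. Finally, cells are fixed in 4% paraformaldehyde with Hoechst 33342, washed and imaged.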

T1 sequence (Q15116 25-288): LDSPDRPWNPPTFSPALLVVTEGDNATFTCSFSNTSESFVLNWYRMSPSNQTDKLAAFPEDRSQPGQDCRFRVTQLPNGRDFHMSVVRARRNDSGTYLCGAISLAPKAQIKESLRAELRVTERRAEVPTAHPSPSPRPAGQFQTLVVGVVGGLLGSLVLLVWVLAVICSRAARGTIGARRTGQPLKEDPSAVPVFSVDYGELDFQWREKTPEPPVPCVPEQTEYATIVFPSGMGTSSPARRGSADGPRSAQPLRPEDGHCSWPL

Row | Structure (SMILES) | IC50 [nM]
1 | Cc1cccc(C[C@@H]2NC(=O)[C@H](CC(=O)O)NC(=O)[C@H](Cc3ccc(OCC(=O)O)cc3)NC(=O)[C@H](CN)NC(=O)CSC[C@@H](C(=O)N[C@@H](C)C(=O)N[C@@H](CN)C(=O)NCCCCCCCCCCC(=O)O)NC(=O)[C@H]([C@@H](C)O)NC(=O)[C@H](C(C)C)NC(=O)[C@H](CC3CCCCC3)NC(=O)[C@H](CCN)NC(=O)[C@@H](CC(C)C)NC(=O)[C@H](CCCN)NC(=O)[C@H](CCCNC(N)=O)NC(=O)[C@H](Cc3ccc(-c4ccccc4)cc3)NC(=O)[C@H](C(C)C)NC2=O)c1 [Compound 1057] ({CH2CO}-[Dap]Y(Carboxymethyl)D[Phe(3-Me)]V[Bip][Cit][Orn][dL][Dab][Cha]VTCA[Dap][Aun]-OH; thioether N-14) | 15.9
2 | CC(C)C[C@H]1NC(=O)[C@H](CCCN)NC(=O)[C@H](C(C)C)NC(=O)[C@H](Cc2ccc(-c3ccccc3)cc2)NC(=O)[C@H](C(C)C)NC(=O)[C@H](Cc2c[nH]c3ccccc23)NC(=O)[C@H](CC(=O)O)NC(=O)[C@H](Cc2ccc(OCC(=O)O)cc2)NC(=O)[C@H](Cc2ccc(OCC(=O)O)cc2)NC(=O)CSC[C@@H](C(=O)NCCOCCOCC(=O)N[C@@H](CCN)C(=O)NCCCCCCCCCCC(=O)O)NC(=O)[C@H](CCCN)NC(=O)[C@H](C(C)C)NC(=O)[C@H](CC2CCCCC2)NC(=O)[C@H](CCN)NC1=O [Compound 2545] ({CH2CO}-Y(Carboxymethyl)Y(Carboxymethyl)DWV[Bip]V[Orn][dL][Dab][Cha]V[Orn]C[AEEA][Dab][Aun]-OH; thioether N-14) | 7.4
3 | CC(C)C[C@H]1NC(=O)[C@H](CCCN)NC(=O)[C@H](C(C)C)NC(=O)[C@H](Cc2ccc(-c3ccccc3)cc2)NC(=O)[C@H](C(C)C)NC(=O)[C@H](Cc2c[nH]c3ccccc23)NC(=O)[C@H](CC(=O)O)NC(=O)[C@H](Cc2ccc(OCC(=O)O)cc2)NC(=O)[C@H](CN)NC(=O)CSC[C@@H](C(=O)N[C@@H](C)C(=O)N[C@@H](CC(=O)O)C(=O)NCC(=O)NCCCCCCCCCCC(=O)O)NC(=O)[C@H]([C@@H](C)O)NC(=O)[C@H](C(C)C)NC(=O)[C@H](CC2CCCCC2)NC(=O)[C@H](Cc2cnc[nH]2)NC1=O [Compound 1089] ({CH2CO}-[Dap]Y(Carboxymethyl)DWV[Bip]V[Orn][dL]H[Cha]VTCADG[Aun]-OH; thioether N-14) | 33.1
4 | CC(C)C[C@H]1NC(=O)[C@H](CCCN)NC(=O)[C@H](C(C)C)NC(=O)[C@H](Cc2ccc(-c3ccccc3)cc2)NC(=O)[C@H](C(C)C)NC(=O)[C@H](Cc2c[nH]c3ccccc23)NC(=O)[C@H](CC(=O)O)NC(=O)[C@H](Cc2ccc(OCC(=O)O)cc2)NC(=O)[C@H](Cc2ccc(OCC(=O)O)cc2)NC(=O)CSC[C@@H](C(=O)N[C@@H](CCCCN)C(=O)NCCOCCOCC(=O)NCCCCCCCCCCC(=O)O)NC(=O)[C@H](CCCN)NC(=O)[C@H](C(C)C)NC(=O)[C@H](CC2CCCCC2)NC(=O)[C@H](CCN)NC1=O [Compound 2529] ({CH2CO}-Y(Carboxymethyl)Y(Carboxymethyl)DWV[Bip]V[Orn][dL][Dab][Cha]V[Orn]CK[AEEA][Aun]-OH; thioether N-14) | 12.7
5 | CC(C)C[C@@H]1NC(=O)[C@H](Cc2c[nH]c3ccccc23)NC(=O)[C@H](CC(=O)O)NC(=O)[C@H](Cc2ccc(C(=O)O)cc2)NC(=O)[C@H](Cc2ccc(CCC(=O)O)cc2)NC(=O)CSC[C@@H](C(=O)N[C@@H](CCN)C(=O)NCCCCCCCCCCC(=O)O)NC(=O)[C@@H](CO)NC(=O)[C@H](C(C)C)NC(=O)[C@H](CC2CCCCC2)NC(=O)[C@H](CCN)NC(=O)[C@@H](CC(C)C)NC(=O)[C@H](CCCN)NC(=O)[C@H](C(C)C)NC(=O)[C@H](Cc2ccc(-c3ccccc3)cc2)NC1=O [Compound 2019] ({CH2CO}-[Phe(4-CH2CH2COOH)][Phe(4-COOH)]DWL[Bip]V[Orn][dL][Dab][Cha]V[dS]C[Dab][Aun]-OH; thioether N-14) | 49.9
6 | CC(C)C[C@@H]1NC(=O)[C@H](Cc2c[nH]c3ccccc23)NC(=O)[C@H](CC(=O)O)NC(=O)[C@H](Cc2ccc(OCC(=O)O)cc2)NC(=O)[C@H](CN)NC(=O)CSC[C@@H](C(=O)N[C@@H](CCN)C(=O)NCCCCCCCCCCC(=O)O)NC(=O)[C@@H](CO)NC(=O)[C@H](C(C)C)NC(=O)[C@H](CC2CCCCC2)NC(=O)[C@H](CCN)NC(=O)[C@@H](CC(C)C)NC(=O)[C@H](CCCN)NC(=O)[C@H](C(C)C)NC(=O)[C@H](Cc2ccc(-c3ccccc3)cc2)NC1=O [Compound 2018] ({CH2CO}-[Dap]Y(Carboxymethyl)DWL[Bip]V[Orn][dL][Dab][Cha]V[dS]C[Dab][Aun]-OH; thioether N-14) | 40.4
7 | Cc1cccc(C[C@@H]2NC(=O)[C@H](CC(=O)O)NC(=O)[C@H](Cc3ccc(OCC(=O)O)cc3)NC(=O)[C@H](CN)NC(=O)CSC[C@@H](C(=O)N[C@@H](CCN)C(=O)NCCOCCOCC(=O)NCCCCCCCCCCC(=O)O)NC(=O)[C@H](CCCN)NC(=O)[C@H](C(C)C)NC(=O)[C@H](CC3CCCCC3)NC(=O)[C@H](CCN)NC(=O)[C@@H](CC(C)C)NC(=O)[C@H](CCCN)NC(=O)[C@H](Cc3ccc(OCC(=O)O)cc3)NC(=O)[C@H](Cc3ccc(-c4ccccc4)cc3)NC(=O)[C@H](C(C)C)NC2=O)c1 [Compound 2061] ({CH2CO}-[Dap]Y(Carboxymethyl)D[Phe(3-Me)]V[Bip]Y(Carboxymethyl)[Orn][dL][Dab][Cha]V[Orn]C[Dab][AEEA][Aun]-OH; thioether N-14) | 3.9
8 | Cc1cccc(C[C@@H]2NC(=O)[C@H](CC(=O)O)NC(=O)[C@H](Cc3ccc(OCC(=O)O)cc3)NC(=O)[C@H](CN)NC(=O)CSC[C@@H](C(=O)N[C@@H](CCCCN)C(=O)NCCCCCCCCCCC(=O)O)NC(=O)[C@H](CCCN)NC(=O)[C@H](C(C)C)NC(=O)[C@H](CC3CCCCC3)NC(=O)[C@H](CCN)NC(=O)[C@@H](CC(C)C)NC(=O)[C@H](CCCN)NC(=O)[C@H](Cc3ccc(O)cc3)NC(=O)[C@H](Cc3ccc(-c4ccccc4)cc3)NC(=O)[C@H](C(C)C)NC2=O)c1 [Compound 2590] ({CH2CO}-[Dap]Y(Carboxymethyl)D[Phe(3-Me)]V[Bip]Y[Orn][dL][Dab][Cha]V[Orn]CK[Aun]-OH; thioether N-14) | 9.5

Next, values leading:

Row | IC50 [nM] | Structure (SMILES)
9 | 10.6 | Cc1cccc(C[C@@H]2NC(=O)[C@H](CC(=O)O)NC(=O)[C@H](Cc3ccc(OCC(=O)O)cc3)NC(=O)[C@H](CN)NC(=O)CSC[C@@H](C(=O)NCCOCCOCC(=O)N[C@@H](CCCCN)C(=O)NCCCCCCCCCCC(=O)O)NC(=O)[C@H](CCCNC(=N)N)NC(=O)[C@H](C(C)C)NC(=O)[C@H](CC3CCCCC3)NC(=O)[C@H](CCN)NC(=O)[C@@H](CC(C)C)NC(=O)[C@H](CCCN)NC(=O)[C@H](C(C)C)NC(=O)[C@H](Cc3ccc(-c4ccccc4)cc3)NC(=O)[C@H](C(C)C)NC2=O)c1 [Compound 2598] ({CH2CO}-[Dap]Y(Carboxymethyl)D[Phe(3-Me)]V[Bip]V[Orn][dL][Dab][Cha]VRC[AEEA]K[Aun]-OH; thioether N-14)
10 | 39.5 | Cc1cccc(C[C@@H]2NC(=O)[C@H](CC(=O)O)NC(=O)[C@H](Cc3ccc(OCC(=O)O)cc3)NC(=O)[C@H](CCCNC(N)=O)NC(=O)CSC[C@@H](C(=O)N[C@@H](CCCN)C(=O)NCCCCCCCCCCC(=O)O)NC(=O)[C@H](CO)NC(=O)[C@H](C(C)C)NC(=O)[C@H](CC3CCCCC3)NC(=O)[C@H](CCN)NC(=O)[C@@H](CC(C)C)NC(=O)[C@H](CCCN)NC(=O)[C@H](C(C)C)NC(=O)[C@H](Cc3ccc(-c4ccccc4)cc3)NC(=O)[C@H](C(C)C)NC2=O)c1 [Compound 3049] ({CH2CO}-[Cit]Y(Carboxymethyl)D[Phe(3-Me)]V[Bip]V[Orn][dL][Dab][Cha]VSC[Orn][Aun]-OH; thioether N-14)
11 | 13.2 | Cc1cccc(C[C@@H]2NC(=O)[C@H](CC(=O)O)NC(=O)[C@H](Cc3ccc(OCC(=O)O)cc3)NC(=O)[C@H](CN)NC(=O)CSC[C@@H](C(=O)NCCCCCCCCCCC(=O)O)NC(=O)[C@H](CN)NC(=O)[C@H](C(C)C)NC(=O)[C@H](CC3CCCCC3)NC(=O)[C@H](CCN)NC(=O)[C@@H](CC(C)C)NC(=O)[C@H](CCCN)NC(=O)[C@H](C(C)C)NC(=O)[C@H](Cc3ccc(-c4ccccc4)cc3)NC(=O)[C@H](C(C)C)NC2=O)c1 [Compound 2604] ({CH2CO}-[Dap]Y(Carboxymethyl)D[Phe(3-Me)]V[Bip]V[Orn][dL][Dab][Cha]V[Dap]C[Aun]-OH; thioether N-14)
12 | 56.2 | Cc1cccc(C[C@@H]2NC(=O)[C@H](CC(=O)O)NC(=O)[C@H](Cc3ccc(F)cc3)NC(=O)[C@H](CCN)NC(=O)CSC[C@@H](C(=O)N[C@@H](CCN)C(=O)NCCCCCCCCCCC(=O)O)NC(=O)[C@H](CO)NC(=O)[C@H](C(C)(C)O)NC(=O)[C@H](CC3CCCCC3)NC(=O)[C@H](Cc3cnc[nH]3)NC(=O)[C@@H](CC(C)C)NC(=O)[C@H](CCCN)NC(=O)[C@H](Cc3ccc(OCC(=O)O)cc3)NC(=O)[C@H](Cc3ccc(-c4ccccc4)cc3)NC(=O)[C@H](Cc3ccc(OCC(=O)O)cc3)NC2=O)c1 [Compound 3732] ({CH2CO}-[Dab][Phe(4-F)]D[Phe(3-Me)]Y(Carboxymethyl)[Bip]Y(Carboxymethyl)[Orn][dL]H[Cha][Val(3-OH)]SC[Dab][Aun]-OH; thioether N-14)
13 | 11 | CC(=O)NCCCC[C@@H]1NC(=O)[C@H](Cc2ccc(OCC(=O)O)cc2)NC(=O)[C@H](Cc2ccc(-c3ccccc3)cc2)NC(=O)[C@H](Cc2ccc(OCC(=O)O)cc2)NC(=O)[C@H](Cc2cccc(C)c2)NC(=O)[C@H](CC(=O)O)NC(=O)[C@H](Cc2ccc(OCC(=O)O)cc2)NC(=O)[C@H](CCCNC(=N)N)NC(=O)CSC[C@@H](C(=O)N[C@@H](CCN)C(=O)NCCCCCCCCCCC(=O)O)NC(=O)[C@H](C(C)O)NC(=O)[C@H](C(C)C)NC(=O)[C@H](CC2CCCCC2)NC(=O)[C@H](CCN)NC(=O)[C@@H](CC(C)C)NC1=O (stereo partly drawn) [Compound 3496] ({CH2CO}-RY(Carboxymethyl)D[Phe(3-Me)]Y(Carboxymethyl)[Bip]Y(Carboxymethyl)K(Ac)[dL][Dab][Cha]V[Thr(3ξ)]C[Dab][Aun]-OH; thioether N-14)
